Source: US8633245B2, “PAI-1 inhibitor” (Institute of Medicinal Molecular Design, Inc., priority 2008, dated 2014)

Key:
Format in all cases: biochemical
[1] = biological target: T1, recombinant rat PAI-1 (Rattus norvegicus, UniProt P20961); assay: Test Example 3: rat PAI-1 inhibitory activity (as Test Example 2 with rat PAI-1); conditions: for IC50: rat PAI-1, calculated from the inhibition rates
T1 construct: purchased Molecular Innovations, Inc
T1 sequence (P20961 24-402): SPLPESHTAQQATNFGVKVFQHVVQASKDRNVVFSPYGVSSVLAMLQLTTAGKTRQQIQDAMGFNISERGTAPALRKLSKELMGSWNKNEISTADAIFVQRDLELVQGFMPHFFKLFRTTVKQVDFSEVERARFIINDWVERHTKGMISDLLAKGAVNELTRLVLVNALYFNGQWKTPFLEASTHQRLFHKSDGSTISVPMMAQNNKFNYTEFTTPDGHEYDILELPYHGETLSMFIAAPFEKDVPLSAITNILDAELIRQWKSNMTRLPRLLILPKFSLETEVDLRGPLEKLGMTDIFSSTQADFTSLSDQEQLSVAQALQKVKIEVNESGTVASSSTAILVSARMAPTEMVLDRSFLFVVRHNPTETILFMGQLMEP
Procedure: To this solution, 6 μl of 80 nM recombinant human PAI-1 (Molecular Innovations, Inc.) solution prepared with Tris buffer was added, and the plate was incubated for 5 minutes at room temperature. Furthermore, 30 μl of 800 IU/ml two-chain tPA (Activity Standard; American diagnostica, inc.) prepared with Tris buffer was added, and the mixed solution was incubated for 15 minutes at room temperature. Then, 30 μl of 400 μM fluorogenic substrate (Pyr-Gly-Arg-MCA; Peptide Institute, Inc.) for tPA prepared with Tris buffer was added and reacted for 30 minutes at room temperature.

[2] = biological target: T2, recombinant human PAI-1 (Homo sapiens, UniProt P05121); assay: Test Example 2: human PAI-1 inhibitory activity (tPA fluorogenic substrate, pH 7.4 HEPES buffer); conditions: for IC50: human PAI-1, calculated from the inhibition rates; for inhibition at 3 µM: read-out: Inhibition Rate of PAI-1 Activity (%)
T2 construct: purchased Molecular Innovations, Inc
T2 sequence (P05121 24-402): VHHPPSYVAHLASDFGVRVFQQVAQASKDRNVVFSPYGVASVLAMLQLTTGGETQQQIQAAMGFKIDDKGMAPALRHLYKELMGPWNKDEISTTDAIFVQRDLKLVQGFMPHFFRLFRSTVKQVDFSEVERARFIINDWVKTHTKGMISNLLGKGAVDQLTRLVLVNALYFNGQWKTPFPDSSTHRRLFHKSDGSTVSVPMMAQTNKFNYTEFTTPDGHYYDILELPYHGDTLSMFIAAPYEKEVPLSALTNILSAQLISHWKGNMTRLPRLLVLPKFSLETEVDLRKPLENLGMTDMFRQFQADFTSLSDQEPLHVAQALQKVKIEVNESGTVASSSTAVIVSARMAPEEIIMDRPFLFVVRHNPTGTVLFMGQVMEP
Procedure: 0.1 M HEPES, 0.1 M NaCl. 1 mM EDTA. 0.1% Polyethylene glycol 8,000 (Hampton Research Corporation),
2 mM Dimethyldecylphoshine oxide [Apo-10] (Fluka Corporation)

[3] = biological target: T2, recombinant human PAI-1; assay: Test Example 1: human PAI-1 inhibitory activity (tPA fluorogenic substrate, pH 7.5 Tris buffer); conditions: Tris buffer
Procedure: 50 mM Tris, 150 mM NaCl, 10 μg/ml BSA, 0.01% Tween80 (SIGMA-ALDRICH Corporation)

| SMILES | IC50 [1] [nM] | IC50 [2] [nM] | inhibition at 3 µM [2] [%] | inhibition at 10 µM ([1]; read-out: Inhibition Rate of PAI-1 Activity (%)) [%] | Inhibition Rate of PAI-1 Activity (%) ([3]; Compound Concentration 5 μM) | Inhibition Rate of PAI-1 Activity (%) ([3]; Compound Concentration 10 μM) | Inhibition Rate of PAI-1 Activity (%) ([3]; Compound Concentration 25 μM) |
| --- | --- | --- | --- | --- | --- | --- | --- |
| CC(C)(C)c1ccc(C(c2ccccc2)N(C(=O)C(=O)O)c2ccc(-c3ccc(OC(F)(F)F)cc3)cc2)cc1 (stereo not shown) [Compound 222] | 1340 | 1060 | > 99 | – | – | – | – |
| CC(C)(C)c1ccc(Oc2cc(Oc3ccc(OC(F)(F)F)cc3)ccc2CCC(=O)O)cc1 [Compound 90] | 2650 | 1350 | – | – | – | – | – |
| CC(C)(C)c1ccc(Oc2cccc(-c3ccc(OC(F)(F)F)cc3)c2CCC(=O)O)cc1 [Compound 94] | 3180 | 1340 | – | – | – | – | – |
| CCN(CC)c1ccc(N(CCCc2ccccc2)C(=O)C(=O)O)c(-c2ccc(OC(F)(F)F)cc2)c1 [Compound 238] | 3140 | 1570 | – | – | – | – | – |
| CC(C)(C)c1ccc(COc2c(CCC(=O)O)cccc2-c2ccc(OC(F)(F)F)cc2)cc1 [Compound 88] | 3240 | 1310 | – | – | – | – | – |
| CCCCCOc1ccc(-c2ccc(OC(F)(F)F)cc2)cc1N(CCCCc1ccccc1)C(=O)C(=O)O [Compound 226] | 1000 | 510 | – | > 99 | – | – | – |
| CCC(CC)Oc1ccc(N(CCCc2ccccc2)C(=O)C(=O)O)cc1-c1ccc(OC(F)(F)F)cc1 [Compound 230] | 1830 | 1320 | – | – | – | – | – |
| CC(C)(C)c1ccc(Oc2cccc(-c3ccc(OC(F)(F)F)cc3)c2OCC(=O)O)cc1 [Compound 113] | 3680 | 1750 | – | – | – | – | – |
| O=C(O)CCc1c(Oc2ccc(OC(F)(F)F)cc2)cccc1Oc1ccc(OC(F)(F)F)cc1 [Compound 98] | 3530 | 1540 | – | – | – | – | – |
| CC(C)(C)c1ccc(COc2cccc(Oc3ccc(OC(F)(F)F)cc3)c2CCC(=O)O)cc1 [Compound 86] | 5210 | 1540 | – | – | – | – | – |
| CC(C)(C)c1ccc(COc2c(OCC(=O)O)cccc2-c2ccc(OC(F)(F)F)cc2)cc1 [Compound 117] | 2480 | 1040 | > 99 | – | – | – | – |
| CC(C)(Oc1cc(-c2ccc(OC(F)(F)F)cc2)ccc1OCCCCc1ccccc1)C(=O)O [Compound 116] | 3240 | 1650 | – | – | – | – | – |
| CC(C)(C)c1ccc(Oc2cc(-c3ccc(OC(F)(F)F)cc3)ccc2OCC(=O)O)cc1 [Compound 112] | 1980 | 790 | – | – | – | – | – |
| CC(C)(C)c1ccc(COc2cc(-c3ccc(OC(F)(F)F)cc3)ccc2CCC(=O)O)cc1 [Compound 76] | 2880 | 1160 | – | – | – | – | – |
| CCCCC(c1ccc(C(C)(C)C)cc1)N(C(=O)C(=O)O)c1ccc(-c2ccc(OC(F)(F)F)cc2)cc1 (stereo not shown) [Compound 221] | 1270 | 930 | > 99 | – | – | – | – |
| CN(C(=O)C(=O)O)c1ccc(OCc2ccc(OC(F)(F)F)cc2)c(OCc2ccc(OC(F)(F)F)cc2)c1 [Compound 623] | – | – | – | – | 22 | 41 | 87 |
| O=C(O)CCc1cc(OCc2ccc(OC(F)(F)F)cc2)ccc1OCc1ccc(OC(F)(F)F)cc1 [Compound 404] | – | – | – | – | 14 | 31 | 84 |
| CC(C)(C)c1ccc(COc2cc(-c3ccc(OC(F)(F)F)cc3)ccc2/C=C/C(=O)O)cc1 [Compound 75] | – | – | – | – | 25 | 53 | 91 |
| CCCCc1ccc(-c2ccc(N(Cc3ccc(C(C)(C)C)cc3)C(=O)C(=O)O)cc2)cc1 [Compound 164] | – | – | – | – | 40 | 79 | 96 |
| CC(C)Oc1ccc(N(Cc2ccc(C(C)(C)C)cc2)C(=O)C(=O)O)c(-c2ccc(OC(F)(F)F)cc2)c1 [Compound 209] | – | – | – | – | 81 | 98 | 94 |
| COc1ccccc1-c1ccc(OCc2ccc(C(C)(C)C)cc2)c(CCC(=O)O)c1 [Compound 56] | – | – | – | – | 22 | 47 | 91 |
| CC(C)(C)c1ccc(-c2ccc(OCc3ccccc3)c(/C=C/C(=O)O)c2)cc1 [Compound 47] | – | – | – | – | 22 | 47 | 91 |
